According to patent US20120065126A1, “Pharmaceutical Compositions Containing Antifungal Peptides” (BASF SE, priority 2009, published 2012):

How the values were obtained:
[1] = system: Malassezia furfur (DSM 6170); assay type: cell-based; details: DSM 6170, 72 h
Experimental: Minimum inhibitory concentration of peptide P18 (P18 sequence H-KWKLFKKIPKFLHLAKKF-NH2 (Bachem AG, Switzerland)) based on Malassezia furfur (DSM 6170)
Growth medium M472 Pityrosporum medium according to DSMZ:
40 g of malt extract (Becton, Dickinson and Company, Sparks, USA) 20 g of ox bile (Merck, Darmstadt, Germany)
A shake culture containing M472 Pityrosporum medium was inoculated with M. furfur and incubated with shaking at 30° C. and 200 rpm overnight.
The suspension was adjusted to an optical density measured at 600 nm of 0.1. A 96-well microtiter plate was filled with 95 μl per well of the M. furfur suspension. Then a dilution series of the peptide with a final concentration in the wells between 0 and 1000 ppm was added. To this end, 5 μl per well of peptide solution with a concentration in the range from 0 ppm to 20 000 ppm were added to the M. furfur suspension, such that final concentrations of the peptide in the wells in the range between 0 ppm and 1000 ppm were obtained.
The microtiter plate was incubated at 30° C., 600 rpm. The fungal growth was assessed by measuring the optical density at 620 nm and observed over 72 hours. The experiments were conducted at least in double determination and independently repeated at least once.

C. albicans (DSM 11948) = assay: P18 in pharmaceutical base formulation (CFU); assay type: cell-based, Candida albicans; details: mixed 1:9 with suspension
Experimental: The aim of the experiment was to study the effect of a pharmaceutical base formulation with the P18 peptide ingredient (P18 sequence H-KWKLFKKIPKFLHLAKKF-NH2 (Bachem AG, Switzerland)). For this purpose, the following base formulation was used: […]
1% hydroxycellulose 10% propylene glycol made up with water.
Based on the base formulation, formulations with rising P18 concentrations (500 ppm to 10 000 ppm) were prepared from a 20% concentrate solution.
The effect of the formulations on C. albicans (DSM 11948) was studied.
YM growth medium (Becton, Dickinson and Company, Sparks, USA) 3 g of yeast extract 3 g of malt extract 5 g of peptone 10 g of dextrose make up to 1 liter, set pH 6.2
The growth test was effected as follows: 5 ml of YM medium were inoculated with C. albicans and incubated at 30° C. and 200 rpm overnight.
1.5 ml reaction vessels were each filled with 1 ml of YM medium and inoculated with the C. albicans suspension from the overnight culture such that an optical density—measured at 600 nm—of 0.1 was obtained at the start of the experiment. The resulting C. albicans suspension was mixed in a ratio of 1:9 (formulation: C. albicans suspension) with the formulations. 1 μl of the culture was diluted with 20 μl of YM medium after 5 minutes, 10 minutes, 20 minutes and 60 minutes, and then plated out. After incubation over 24 hours, the colonies on the plates were counted.

M. furfur = assay: Effect of P18 variants (CFU); assay type: cell-based, Malassezia furfur; details: 50 μM peptide, with DMSO; 24 h
Experimental: The studies described hereinafter were conducted on the Malassezia furfur strain DSM 6170.
The inhibitory effect of the following P18 variants on M. furfur was studied:
The growth test was effected as follows: a shake culture containing M472 Pityrosporum medium was inoculated with M. furfur and incubated with shaking at 30° C. and 200 rpm overnight.
A 96-well microtiter plate was filled with 100 μl per well of M472 Pityrosporum medium and inoculated with M. furfur suspension from the overnight culture. The M. furfur suspension was adjusted at the start of the experiment to an optical density, measured at 600 nm, of 0.1.
The peptide variants were dissolved with a final concentration of 1 mM in dimethyl sulfoxide (DMSO). It is also possible to dispense with DMSO and to use a purely aqueous peptide solution. 5 μl of this solution were added to 100 μl of M. furfur suspension (final concentration of the P18 peptide 50 μM). In a control mixture, the same amount of DMSO without P18 peptide was added.
The microtiter plate was incubated with shaking at 30°.
After 24 h, the colony forming units (CFU) were determined by streaking 10 μl of each of the suspensions and, after incubation over the course of 6 days, counting the colonies. Two independent experiments each with three identical mixtures were conducted, and the number of colony forming units was averaged.

H-KWKLFKKIPKFLHLAKKF-NH2 [P18, H-KWKLFKKIPKFLHLAKKF-NH2]
Minimum inhibitory concentration [1]: 125 ppm | Colony forming units after the incubation time specified (C. albicans (DSM 11948); 10 000 ppm in the formulation, 5 minutes): 0.5 ± 0 CFU | Colony forming units after the incubation time specified (C. albicans (DSM 11948); 10 000 ppm in the formulation, 10 minutes): 0 ± 0 CFU | Colony forming units after the incubation time specified (C. albicans (DSM 11948); 10 000 ppm in the formulation, 20 minutes): 0 ± 0 CFU | Colony forming units after the incubation time specified (C. albicans (DSM 11948); 10 000 ppm in the formulation, 60 minutes): 0 ± 0 CFU | Colony forming units after the incubation time specified (C. albicans (DSM 11948); 500 ppm in the formulation, 5 minutes): 1484 ± 28 CFU | Colony forming units after the incubation time specified (C. albicans (DSM 11948); 500 ppm in the formulation, 10 minutes): 1445 ± 38 CFU | Colony forming units after the incubation time specified (C. albicans (DSM 11948); 500 ppm in the formulation, 20 minutes): 1262 ± 354 CFU | Colony forming units after the incubation time specified (C. albicans (DSM 11948); 500 ppm in the formulation, 60 minutes): 962 ± 738 CFU | Colony forming units after the incubation time specified (C. albicans (DSM 11948); 1000 ppm in the formulation, 5 minutes): 863 ± 553 CFU | Colony forming units after the incubation time specified (C. albicans (DSM 11948); 1000 ppm in the formulation, 10 minutes): 616 ± 76 CFU | Colony forming units after the incubation time specified (C. albicans (DSM 11948); 1000 ppm in the formulation, 20 minutes): 251 ± 109 CFU | Colony forming units after the incubation time specified (C. albicans (DSM 11948); 1000 ppm in the formulation, 60 minutes): 3.25 ± 1.8 CFU | Colony forming units after the incubation time specified (C. albicans (DSM 11948); 2000 ppm in the formulation, 5 minutes): 29 ± 23 CFU | Colony forming units after the incubation time specified (C. albicans (DSM 11948); 2000 ppm in the formulation, 10 minutes): 3.5 ± 3.5 CFU | Colony forming units after the incubation time specified (C. albicans (DSM 11948); 2000 ppm in the formulation, 20 minutes): 0.25 ± 0.4 CFU | Colony forming units after the incubation time specified (C. albicans (DSM 11948); 2000 ppm in the formulation, 60 minutes): 0 ± 0 CFU | Colony forming units after the incubation time specified (C. albicans (DSM 11948); 5000 ppm in the formulation, 5 minutes): 1 ± 0.7 CFU | Colony forming units after the incubation time specified (C. albicans (DSM 11948); 5000 ppm in the formulation, 10 minutes): 0 ± 0 CFU | Colony forming units after the incubation time specified (C. albicans (DSM 11948); 5000 ppm in the formulation, 20 minutes): 0 ± 0 CFU | Colony forming units after the incubation time specified (C. albicans (DSM 11948); 5000 ppm in the formulation, 60 minutes): 0 ± 0 CFU | Averaged number of colony forming units (CFU) (M. furfur): 0 CFU
